From patent US9073863B2, “Cyanoquinoline compounds having activity in correcting mutant-CFTR processing and increasing ion transport and uses thereof” (The Regents of the University of California, priority 2011, dated 2015)

Assays:
ΔF508-CFTR [1] = target: T1, ΔF508-CFTR (Homo sapiens, UniProt P13569, DEL508-508); assay: Corrector assay, YFP fluorescence plate reader iodide influx in ΔF508-CFTR expressing FRT cells; format: cell-based; conditions: for Corrector Vmax / EC50 / Corrector EC50: 18-24 h with compound at 37° C., forskolin 20 μM + genistein 50 μM; for corrector and potentiator activities, in words: concentration-dependence in corrector and potentiator I− influx assays (FIG. 2, FIG. 7)
T1 construct: expressed in transfected cells; host or cells: Fischer rat thyroid (FRT) epithelial cells, stably transfected
Protocol: (§1) Screening procedures. Screening of compounds for activity was carried out using a Beckman Coulter platform equipped with FLUOstar fluorescence plate readers (Optima; BMG Labtech) with dual syringe pumps and 500±10 nm excitation and 535±15 nm emission filters (Chroma Corp.). For the corrector assay, FRT cells were grown at 37° C./5% CO2 for 18-24 h and then incubated for 18-24 h with 100 μL of medium containing test compounds (25 μM final concentration). At the time of the assay, cells were washed with PBS and then incubated for 10 min with PBS containing forskolin (20 μM) and genistein (50 μM). For the potentiator assay, FRT cells were grown at 37° C./5% CO2 for 18-24 h and then for 18-24 h at 27° C. At the time of the assay, cells were washed with PBS and then incubated for 10 min with PBS (50 μL) containing forskolin (20 μM) and test compound (0-25 μM final concentration). For both the corrector and potentiator assays, each well was assayed individually for I^− influx by recording fluorescence continuously (200 ms per point) for 2 s (baseline) and then for 12 s after rapid addition of 165 μL PBS in which 137 mM Cl^− was replaced by I^−. Initial I^− influx rate was computed by fitting the final 11.5 seconds of the data to an exponential for extrapolation of initial slope, which was normalized for background-subtracted initial fluorescence. All compound plates contained negative controls and positive controls (10 μM Corr-4a for corrector assay; 50 μM genistein for potentiator assay).
(§2) Screening of about 110,000 small molecules was done to identify new ΔF508-CFTR corrector scaffolds having high correction efficiency and/or having independent potentiator activity. […] FRT cells co-expressing human ΔF508-CFTR and a halide-sensing YFP were incubated with test compounds at 37° C. (corrector assay) or 27° C. (potentiator assay). ΔF508-CFTR function was assayed in a plate reader from YFP fluorescence quenching in response to iodide addition in the presence of forskolin (20 μM) plus genistein (50 μM) for corrector assay, or forskolin (20 μM) alone for potentiator assay. As shown in FIG. 1A (left), primary screening for corrector activity was done using a cell-based fluorescence assay of iodide influx in which FRT cells expressing ΔF508-CFTR and an iodide-sensitive YFP were incubated with test compounds at 10 μM for 18-24 h prior to assay. Iodide influx was measured by addition of extracellular iodide in the presence of a potentiator (50 μM genistein) and cAMP agonist (20 μM forskolin). Compound efficacy and potency (from concentration-dependence studies) in the corrector assay were compared to reference bithiazole Corr-4a (10 μM) and to low-temperature rescued cells. Active compounds were counter-screened for potentiator activity (FIG. 1A, right) in which iodide influx was measured in the ΔF508-CFTR expressing FRT cells after low-temperature rescue and in the presence of 20 μM forskolin.
(§3) Screening procedures. Plate reader activity assay was carried out using a Beckman Coulter platform containing a robotic arm, CO2 incubator containing microplate carousel, plate-washer, liquid handling work station, bar code reader, de-lidding station, plate sealer, and FLUOstar fluorescence plate readers (Optima; BMG LABTECH Gmbh), equipped with dual syringe pumps and 500±10 nm excitation and 535±15 nm emission filters (Chroma Corp.). For the corrector assay, ΔF508-CFTR-expressing FRT cells were grown at 37° C. (90% humidity; 5% CO2) for 18-24 h and then incubated for 18-24 h with 100 μL of medium containing test compounds (0-25 μM final concentration). At the time of the assay, cells were washed with PBS and then incubated for 10 min with PBS containing forskolin (20 μM) and genistein (50 μM). For the potentiator assay, FRT cells were grown at 37° C. (90% humidity; 5% CO2) for 18-24 h and then for 18-24 h at 27° C. […]

ΔF508-CFTR [2] = target: T1, ΔF508-CFTR; assay: Potentiator assay, YFP fluorescence plate reader iodide influx in low-temperature rescued ΔF508-CFTR expressing FRT cells; format: cell-based; conditions: for EC50 / Potentiator Vmax: forskolin 20 μM + test compound
Protocol: as §1, §2, §3

[3] = Table IX, additional experiments
[4] = Table IX, additional experiments, 18-24 h at 27° C.
[5] = Table VIII, FRT cells, I− influx
[6] = Table VIII, FRT cells 18-24 h at 27° C., I− influx

T1 sequence (P13569 with tags, fused parts or gaps DEL508-508): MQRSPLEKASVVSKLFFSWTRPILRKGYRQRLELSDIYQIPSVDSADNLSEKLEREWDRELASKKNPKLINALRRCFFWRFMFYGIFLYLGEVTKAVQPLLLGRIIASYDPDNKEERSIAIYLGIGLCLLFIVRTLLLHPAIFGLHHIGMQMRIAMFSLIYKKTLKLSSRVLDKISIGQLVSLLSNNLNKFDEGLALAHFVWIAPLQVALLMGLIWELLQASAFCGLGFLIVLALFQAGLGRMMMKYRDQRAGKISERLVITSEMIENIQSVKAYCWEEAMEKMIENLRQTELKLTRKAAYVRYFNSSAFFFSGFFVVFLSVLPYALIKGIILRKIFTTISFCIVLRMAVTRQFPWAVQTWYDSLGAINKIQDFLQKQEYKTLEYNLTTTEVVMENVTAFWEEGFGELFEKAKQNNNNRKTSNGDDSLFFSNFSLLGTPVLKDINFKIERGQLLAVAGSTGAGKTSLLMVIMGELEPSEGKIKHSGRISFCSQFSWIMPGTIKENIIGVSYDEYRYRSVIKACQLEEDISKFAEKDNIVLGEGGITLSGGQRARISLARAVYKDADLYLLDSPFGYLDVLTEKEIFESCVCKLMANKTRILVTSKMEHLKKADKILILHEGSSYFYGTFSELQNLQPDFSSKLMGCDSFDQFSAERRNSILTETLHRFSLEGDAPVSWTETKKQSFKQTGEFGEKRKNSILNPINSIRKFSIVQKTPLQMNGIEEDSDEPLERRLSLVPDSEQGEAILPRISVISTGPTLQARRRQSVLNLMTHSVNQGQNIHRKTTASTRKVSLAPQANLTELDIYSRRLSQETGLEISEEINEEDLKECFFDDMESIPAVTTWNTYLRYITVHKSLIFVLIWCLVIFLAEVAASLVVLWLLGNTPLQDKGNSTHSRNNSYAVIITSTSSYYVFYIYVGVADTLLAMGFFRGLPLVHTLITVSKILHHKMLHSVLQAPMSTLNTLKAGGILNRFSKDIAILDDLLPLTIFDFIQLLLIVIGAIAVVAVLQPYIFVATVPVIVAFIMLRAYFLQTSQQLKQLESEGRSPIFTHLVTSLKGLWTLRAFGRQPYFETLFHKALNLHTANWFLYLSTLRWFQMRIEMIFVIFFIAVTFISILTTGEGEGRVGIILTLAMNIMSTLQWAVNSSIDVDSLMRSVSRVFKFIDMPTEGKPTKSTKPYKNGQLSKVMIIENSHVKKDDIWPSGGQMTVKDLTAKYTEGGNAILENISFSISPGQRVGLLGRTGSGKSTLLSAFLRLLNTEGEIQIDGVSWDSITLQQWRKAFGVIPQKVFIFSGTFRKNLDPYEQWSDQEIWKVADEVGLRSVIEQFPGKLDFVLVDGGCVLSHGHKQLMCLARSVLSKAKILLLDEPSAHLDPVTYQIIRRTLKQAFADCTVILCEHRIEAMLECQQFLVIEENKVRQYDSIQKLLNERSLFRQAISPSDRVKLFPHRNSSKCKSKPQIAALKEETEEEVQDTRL

SMILES | Corrector Vmax (ΔF508-CFTR [1]; [3]) | Potentiator Vmax (ΔF508-CFTR [2]; [4]) [µM/s] | Corrector Vmax (ΔF508-CFTR [1]; [5]) | EC50 (ΔF508-CFTR [2]; [6]) [µM] | Potentiator Vmax (ΔF508-CFTR [2]; [6]) [µM/s] | also measured
COc1ccc(C(=O)NCCNc2nc3cc(C)cc(C)c3cc2C#N)nc1 [drawing 186] | 88 µM/s | 70 | – | – | – | EC50 (ΔF508-CFTR [1]; [3]): 2.7 ± 0.5 µM; EC50 (ΔF508-CFTR [2]; [4]): 3.4 ± 0.5 µM
COc1ccc(C(=O)NCCNc2nc3c(C)cccc3cc2C#N)cc1OC [Compound 01] | – | – | – | – | – | corrector and potentiator activities, in words (ΔF508-CFTR [1]): corrector and potentiator activities comparable to those of Compound 22
Cc1cc(C)c2cc(C#N)c(NCCNC(=O)c3cccs3)nc2c1 [drawing 139] | – | – | 228 µM/s | 14 | 289 | EC50 (ΔF508-CFTR [1]; [5]): 14 µM
Cc1cc(C)c2cc(C#N)c(NCCNC(=O)c3cccs3)nc2c1 [Compound 03] | – | – | – | – | – | corrector and potentiator activities, in words (ΔF508-CFTR [1]): dual activities
COc1ccc(C(=O)NCCCNc2nc3cc(C)cc(C)c3cc2C#N)cc1 [drawing 178] | 112 µM/s | 231 | – | – | – | EC50 (ΔF508-CFTR [1]; [3]): 4.3 ± 0.2 µM
CCOc1ccccc1NC(=S)NCCNc1nc2c(C)cccc2cc1C#N [drawing 144] | – | – | inactive | 6 | 275 | Corrector EC50 (ΔF508-CFTR [1]; [5]): inactive
COc1ccc(C(=O)N2CCN(c3nc4cc(C)cc(C)c4cc3C#N)CC2)cc1 [Compound AW3] | – | – | – | – | – | corrector and potentiator activities, in words (ΔF508-CFTR [1]): potentiator-only activity; potentiator activity, in words (ΔF508-CFTR [2]; piperazine ring in place of diamino ethylene tether): significant potentiator activity
Cc1cc(C)c2cc(C#N)c(NCCNC(=O)c3cccnc3)nc2c1 [drawing 150] | – | – | 223 µM/s | 11 | 152 | EC50 (ΔF508-CFTR [1]; [5]): 15.2 µM
COc1ccc(C(=O)NCCNc2nc3ccc(C)cc3cc2C#N)cc1OC [drawing 138] | – | – | 281 µM/s | 15 | 297 | EC50 (ΔF508-CFTR [1]; [5]): 3.9 µM
Cc1cc(C)c2cc(C#N)c(NCCCNC(=O)c3ccccn3)nc2c1 [drawing 179] | inactive | 233 | – | – | – | –

Continued, in another order:

Corrector Vmax (ΔF508-CFTR [1]; [3]) | Potentiator Vmax (ΔF508-CFTR [2]; [4]) [µM/s] | Corrector Vmax (ΔF508-CFTR [1]; [5]) | EC50 (ΔF508-CFTR [2]; [6]) [µM] | Potentiator Vmax (ΔF508-CFTR [2]; [6]) [µM/s] | SMILES | also measured
172 µM/s | 181 | – | – | – | COc1ccc(C(=O)NCCNc2nc3cc(C)cc(C)c3cc2C#N)cc1 [drawing 166] | –
108 µM/s | 426 | – | – | – | COc1ccc(C(=O)NCCNc2nc3cc(C)cc(C)c3cc2C#N)c(OC)c1 | EC50 (ΔF508-CFTR [1]; [3]): 4.2 ± 0.4 µM; EC50 (ΔF508-CFTR [2]; [4]): 55 ± 3.5 µM
380 µM/s | 216 | – | – | – | COc1ccc(C(=O)NCCNc2nc3cc(C)cc(C)c3cc2C#N)cc1OC [drawing 185] | EC50 (ΔF508-CFTR [1]; [3]): 1.5 ± 0.4 µM; EC50 (ΔF508-CFTR [2]; [4]): 48 ± 5 µM
– | – | inactive | – | 80 | Cc1cc(C)c2cc(C#N)c(NCCNC(=O)c3ccccn3)nc2c1 [drawing 149] | –
– | – | inactive | – | 129 | COc1ccccc1C(=O)N1CCN(c2nc3cc(C)cc(C)c3cc2C#N)CC1 [drawing 152] | –
inactive | 129 | – | – | – | COc1ccccc1C(=O)N1CCN(c2nc3cc(C)cc(C)c3cc2C#N)CC1 [drawing 170] | Corrector EC50 (ΔF508-CFTR [1]; [3]): inactive; EC50 (ΔF508-CFTR [2]; [4]): 1 ± 0.3 µM
– | – | inactive | 1.3 | 281 | COc1ccc(C(=O)N2CCN(c3nc4cc(C)cc(C)c4cc3C#N)CC2)cc1 [drawing 154] | –
inactive | 281 | – | – | – | COc1ccc(C(=O)N2CCN(c3nc4cc(C)cc(C)c4cc3C#N)CC2)cc1 [drawing 172] | Corrector EC50 (ΔF508-CFTR [1]; [3]): inactive
– | – | 172 µM/s | 4.1 | 181 | COc1ccc(C(=O)NCCNc2nc3cc(C)cc(C)c3cc2C#N)cc1 [drawing 148] | EC50 (ΔF508-CFTR [1]; [5]): 3 µM
